# Assay results taken from patent US20230203081A1, “LINCOSAMIDE ANTIBIOTICS AND USES THEREOF” (President and Fellows of Harvard College, priority 2020, published 2023).
# How the values were obtained:
# Assay type in all cases: cell-based
# E. coli armA = test: microbe, parasite or virus in culture; details: Escherichia coli, E. coli HAV#056; Clinical, armA
# Outline: (§1)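 Per CLSI, MICs by broth microdilution or agar dilution; strains other than streptococci and anaerobes were sub-cultured overnight at 35° C on blood agar, with a final broth inoculum of 5×10^5 CFU/mL.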
# E. coli ΔTolC = test: microbe, parasite or virus in culture; details: Escherichia coli, E. coli HAV#038; ΔTolC
# Outline: as §1
# S. aureus BAA 977 iErmA = test: microbe, parasite or virus in culture; details: Staphylococcus aureus, BAA-977 / MRSA
# Outline: as §1
# S. aureus MP-549 msrA = test: microbe, parasite or virus in culture; details: Staphylococcus aureus, MP549MSRA; S. aureus HAV#032, MP-549; MSR(A); read-out: MIC
# Outline: as §1
# [1] = test system: broad panel of different clinical isolates; test: microbe, parasite or virus in culture
# Outline: as §1
# E. coli LptD = test: MIC (broth microdilution or agar dilution, CLSI); details: Escherichia coli, E. coli HAV#040; LptD; read-out: MIC
# Outline: as §1
# E. faecalis ATCC 29212 = test: MIC (broth microdilution or agar dilution, CLSI); details: Enterococcus faecalis, ATCC29212, E. faecalis HAV#005, ATCC 29212; read-out: MIC
# Outline: as §1
# K. oxytoca Clinical = test: MIC (broth microdilution or agar dilution, CLSI); details: Klebsiella oxytoca; K. oxytoca HAV#450; Clinical; read-out: MIC
# Outline: as §1
# K. pneumoniae ATCC 10031 = test: MIC (broth microdilution or agar dilution, CLSI); details: Klebsiella pneumoniae, ATCC10031
# Outline: as §1
# S. aureus ATCC 29213 = test: MIC (broth microdilution or agar dilution, CLSI); details: Staphylococcus aureus, ATCC29213, S. aureus HAV#001, ATCC 29213, MP-549; read-out: MIC
# Outline: as §1
# S. aureus ATCC 700699 = test: MIC (broth microdilution or agar dilution, CLSI); details: Staphylococcus aureus; S. aureus HAV#202, ATCC 700699 (VISA); read-out: MIC
# Outline: as §1
# [2] = test system: S. aureus ATCC BAA-1707 (MRSA); test: MIC (broth microdilution or agar dilution, CLSI); details: Staphylococcus aureus
# Outline: as §1
# S. aureus MMX 3035 cErmA = test: MIC (broth microdilution or agar dilution, CLSI); details: Staphylococcus aureus, MMX3035CERMA; S. aureus HAV#031, MMX 3035; cErmA; read-out: MIC
# Outline: as §1
# S. aureus hVISA = test: MIC (broth microdilution or agar dilution, CLSI); details: Staphylococcus aureus; S. aureus HAV#204, hVISA; read-out: MIC
# Outline: as §1
# S. pneumoniae ATCC 49619 = test: MIC (broth microdilution or agar dilution, CLSI); details: Streptococcus pneumoniae, ATCC49619, S. pneumoniae HAV#003, ATCC 49619; read-out: MIC
# Outline: as §1
# [3] = test system: S. pneumoniae MMX 3028 cErmB; test: MIC (broth microdilution or agar dilution, CLSI); details: Streptococcus pneumoniae, MMX3028CERMB; S. pneumoniae HAV#033; MMX 3028, cErmB; read-out: MIC
# Outline: as §1
# [4] = test system: S. pneumoniae MMX 3031 cMefA; test: MIC (broth microdilution or agar dilution, CLSI); details: Streptococcus pneumoniae, MMX3031CMEFA, S. pneumoniae HAV#034; MMX 3031, cMefA; read-out: MIC
# Outline: as §1
# S. pyogenes ATCC 19615 = test: MIC (broth microdilution or agar dilution, CLSI); details: Streptococcus pyogenes, ATCC19615, S. pyogenes HAV#004, ATCC 19615; read-out: MIC
# Outline: as §1
# [5] = test system: S. pyogenes MMX 946; cErmB; test: MIC (broth microdilution or agar dilution, CLSI); details: Streptococcus pyogenes; S. pyogenes HAV#035, MMX 946; cErmB, mac-resistant; read-out: MIC
# Outline: as §1
smiles,measurement,setting,value
C[C@H]1COc2c(N3CCN(C)CC3)c(F)cc3c(=O)c(C(=O)O)cn1c23 [Levofloxacin],MIC,E. coli armA,≤ 0.06 µg/mL
same,MIC,E. coli ΔTolC,≤ 0.06 µg/mL
same,MIC,S. aureus BAA 977 iErmA,0.5 µg/mL
same,MIC,S. aureus MP-549 msrA,1 µg/mL
same,MIC,"[1]; Acinetobacter baumannii, A. baumannii HAV#651, Clinical",0.125 µg/mL
same,MIC,"[1]; Acinetobacter baumannii, A. baumannii HAV#652 Clinical",1 µg/mL
same,MIC,"[1]; Acinetobacter baumannii, A. baumannii HAV#653, Clinical",0.25 µg/mL
same,MIC,"[1]; Acinetobacter baumannii, A. baumannii HAV#654, Clinical",0.125 µg/mL
same,MIC,"[1]; Acinetobacter baumannii, A. baumannii HAV#655, Clinical",0.5 µg/mL
same,MIC,"[1]; Acinetobacter baumannii, A. baumannii HAV#656, Clinical",32 µg/mL
same,MIC,"[1]; Acinetobacter baumannii, A. baumannii HAV#657, Clinical",0.5 µg/mL
same,MIC,"[1]; Acinetobacter baumannii, A. baumannii HAV#658, Clinical",0.25 µg/mL
same,MIC,"[1]; Acinetobacter baumannii, A. baumannii HAV#659, Clinical",16 µg/mL
same,MIC,"[1]; Acinetobacter baumannii, A. baumannii HAV#660, Clinical",64 µg/mL
same,MIC,"[1]; Acinetobacter baumannii, A. baumannii HAV#661, Clinical",0.125 µg/mL
same,MIC,"[1]; Acinetobacter baumannii, A. baumannii HAV#662, Clinical",8 µg/mL
same,MIC,"[1]; Acinetobacter baumannii, A. baumannii HAV#663, Clinical",0.25 µg/mL
same,MIC,"[1]; Acinetobacter baumannii, A. baumannii HAV#664, Carbapenem R",64 µg/mL
same,MIC,"[1]; Enterococcus faecalis, E. faecalis HAV#602, Clincal",1 µg/mL
same,MIC,"[1]; Enterococcus faecalis, E. faecalis HAV#607, Clinical",64 µg/mL
same,MIC,"[1]; Enterococcus faecalis, E. faecalis HAV#608, Clinical",64 µg/mL
same,MIC,"[1]; Enterococcus faecalis, E. faecalis HAV#609, Clinical",32 µg/mL
same,MIC,"[1]; Enterococcus faecalis, E. faecalis HAV#610, Clinical",8 µg/mL
same,MIC,"[1]; Enterococcus faecalis, S. faecalis 5060, Line R & Vanco R",64 µg/mL
same,MIC,"[1]; Enterococcus faecalis, S. faecalis 5074, Line R",8 µg/mL
same,MIC,"[1]; Enterococcus faecalis, VRE, E. faecalis HAV#251, Clinical VRE",2 µg/mL
same,MIC,"[1]; Enterococcus faecalis, VRE, E. faecalis HAV#606, Clinical",128 µg/mL
same,MIC,"[1]; Enterococcus faecium, E. faecium HAV#317, Clinical",2 µg/mL
same,MIC,"[1]; Enterococcus faecium, E. faecium HAV#324, Clinical",> 128 µg/mL
same,MIC,"[1]; Enterococcus faecium, E. faecium HAV#327, Clinical",4 µg/mL
same,MIC,"[1]; Enterococcus faecium, E. faecium HAV#328, Clinical",128 µg/mL
same,MIC,"[1]; Enterococcus faecium, E. faecium HAV#329, Clinical",128 µg/mL
same,MIC,"[1]; Enterococcus faecium, VRE, E. faecium HAV#319, Line R & Vanco R",128 µg/mL
same,MIC,"[1]; Enterococcus faecium, VRE, E. faecium HAV#320, Clinical",4 µg/mL
same,MIC,"[1]; Escherichia coli, E. coli HAV#501, Clinical",32 µg/mL
same,MIC,"[1]; Escherichia coli, E. coli HAV#503, Clinical",64 µg/mL
same,MIC,"[1]; Escherichia coli, E. coli HAV#511, Clinical",4 µg/mL
same,MIC,"[1]; Escherichia coli, E. coli HAV#512, Clinical",< 0.06 µg/mL
same,MIC,"[1]; Escherichia coli, E. coli HAV#513, Clinical",2 µg/mL
same,MIC,"[1]; Escherichia coli, E. coli HAV#514, Clinical",< 0.06 µg/mL
same,MIC,"[1]; Escherichia coli, E. coli HAV#516, ESBL-producing",16 µg/mL
same,MIC,"[1]; Haemophilus influenzae, ATCC9007, H. influenzae HAV#376, ATCC-9007",0.03 µg/mL
same,MIC,"[1]; Klebsiella pneumoniae, K. pneumoniae HAV#041, Clinical, KPC",64 µg/mL
same,MIC,"[1]; Klebsiella pneumoniae, K. pneumoniae HAV#404, Clinical",1 µg/mL
same,MIC,"[1]; Klebsiella pneumoniae, K. pneumoniae HAV#405, Clinical",1 µg/mL
same,MIC,"[1]; Klebsiella pneumoniae, K. pneumoniae HAV#406, Clinical",0.125 µg/mL
same,MIC,"[1]; Klebsiella pneumoniae, K. pneumoniae HAV#407, Clinical",> 128 µg/mL
same,MIC,"[1]; Klebsiella pneumoniae, K. pneumoniae HAV#408, Clinical",1 µg/mL
same,MIC,"[1]; Klebsiella pneumoniae, K. pneumoniae HAV#409, ESBL-producing",0.5 µg/mL
same,MIC,"[1]; Staphylococcus aureus, MRSA, S. aureus HAV#0107, MRSA Col(Colindale, England)",1 µg/mL
same,MIC,"[1]; Staphylococcus aureus, MRSA, S. aureus HAV#218, Line R",0.25 µg/mL
same,MIC,"[1]; Staphylococcus aureus, MRSA, S. aureus HAV#220, Line R",64 µg/mL
same,MIC,"[1]; Staphylococcus aureus, MSSA, S. aureus HAV#219, Line R",0.25 µg/mL
same,MIC,"[1]; Staphylococcus aureus, S. aureus HAV#051, mecA, norA, spcl, ermA, aad1, aac6′-aph2″",0.5 µg/mL
same,MIC,"[1]; Staphylococcus aureus, S. aureus HAV#052, mecA, norA, fosB, blaZ",1 µg/mL
same,MIC,"[1]; Staphylococcus aureus, S. aureus HAV#053 mecA, norA, fosB",0.5 µg/mL
same,MIC,"[1]; Staphylococcus aureus, S. aureus HAV#054, mecA, norA, spcl, aad1, fosB, ermA, aac6′-aph2″, blaZ",32 µg/mL
same,MIC,"[1]; Staphylococcus aureus, S. aureus HAV#212, Clinical",0.25 µg/mL
same,MIC,"[1]; Staphylococcus aureus, S. aureus HAV#213, Clinical",2 µg/mL
same,MIC,"[1]; Staphylococcus aureus, S. aureus HAV#214, Clinical",0.25 µg/mL
same,MIC,"[1]; Staphylococcus aureus, S. aureus HAV#215, Clinical",0.25 µg/mL
same,MIC,"[1]; Staphylococcus aureus, S. aureus HAV#217, cfr",2 µg/mL
same,MIC,"[1]; Staphylococcus aureus, VISA, S. aureus HAV#203, Clinical (VISA)",8 µg/mL
same,MIC,"[1]; Staphylococcus epidermidis, S. epidermidis HAV# 275 Clinical, cfr",16 µg/mL
same,MIC,"[1]; Staphylococcus epidermidis, S. epidermidis HAV# 276, cfr",128 µg/mL
same,MIC,"[1]; Staphylococcus epidermidis, S. epidermidis HAV#277, Line R",> 128 µg/mL
same,MIC,"[1]; Staphylococcus epidermidis, S. epidermidis HAV#278 Line R",16 µg/mL
same,MIC,"[1]; Staphylococcus epidermidis, S. epidermidis HAV#279, Line R",8 µg/mL
same,MIC,"[1]; Staphylococcus haemolyticus, S. haemolyticus 5052, Line R & Methicillin R",8 µg/mL
same,MIC,"[1]; Streptococcus pneumoniae, ATCC700673, S. pneumoniae HAV#352, ATCC 700673, MDR",0.5 µg/mL
same,MIC,"[1]; Streptococcus pneumoniae, ATCCBAA255, S. pneumoniae HAV#354, ATCC-BAA-255",0.25 µg/mL
same,MIC,"[1]; Streptococcus pneumoniae, ATCCBAA334, S. pneumoniae HAV#353, ATCC-BAA-334",0.5 µg/mL
same,MIC,"[1]; Streptococcus pneumoniae, S. pneumoniae HAV#356, Clinical",0.25 µg/mL
same,MIC,"[1]; Streptococcus pneumoniae, S. pneumoniae HAV#358, Clinical",0.25 µg/mL
same,MIC,E. coli LptD,≤ 0.06 µg/mL
same,MIC,E. faecalis ATCC 29212,2 µg/mL
same,MIC,K. oxytoca Clinical,0.5 µg/mL
same,MIC,K. pneumoniae ATCC 10031,≤ 0.03 µg/mL
same,MIC,S. aureus ATCC 29213,0.25 µg/mL
same,MIC,S. aureus ATCC 700699,32 µg/mL
same,MIC,[2],> 128 µg/mL
same,MIC,S. aureus MMX 3035 cErmA,4 µg/mL
same,MIC,S. aureus hVISA,8 µg/mL
same,MIC,S. pneumoniae ATCC 49619,1 µg/mL
same,MIC,[3],0.5 µg/mL
same,MIC,[4],0.5 µg/mL
same,MIC,S. pyogenes ATCC 19615,0.5 µg/mL
same,MIC,[5],0.5 µg/mL
